Measured values as given in patent US20240317736A1, “DEUTERATED DERIVATIVE AS ATX INHIBITOR, AND APPLICATION THEREOF” (Xizang Haisco Pharmaceutical Co., Ltd., priority 2020, published 2024).
Converted amounts (≈) assume the structure as drawn. Like-named read-outs stand apart in the source and are kept apart here.

Experiments:
[1] = phase II clinical trial; cited from earlier work
[2] = Stability test of crystal form (purity and crystal form change on storage); assay type: physicochemical; conditions: for Crystal form change / Purity: 12 days
Protocol: The crystal form I (example 11) was placed at 25° C./60% RH and 40° C./75% RH for 12 days; and then the sample purity was detected, and the crystal form change was observed.

[3] = Dynamic solubility test in water and biological vehicles; assay type: physicochemical; conditions: 37° C.; for solubility at 1 h / solubility at 2 h / solubility at 4 h / solubility at 24 h: read-out: S: Solubility; for pH: filtrate; for S: Solubility: LOQ: 0.03 μg/mL
Protocol: The dynamic solubility of the crystal form I of compound A (example 11) in water and three biological vehicles was evaluated. […] The samples at each time point were centrifuged (12000 rpm, 5 min) and filtered (0.45 μm PTFE filter), and the HPLC concentration and pH value of the filtrates were measured.
Preparation of simulated gastric fluid (SGF): 0.1 g of NaCl and 0.05 g of Triton X-100 were weighted to a 50 mL volumetric flask, and purified water was added to obtain a clear solution. 67.5 μL of concentrated hydrochloric acid (12 M) was added, and the pH was adjusted to 1.8 with 1 M hydrochloric acid or a 1 M NaOH solution. Purified water was added to a constant volume.
Preparation of simulated intestinal fluid (FaSSIF) in a fasted state: 0.17 g of anhydrous NaH2PO4, 0.021 g of NaOH and 0.31 g of NaCl were weighed to a 50 mL volumetric flask. About 48 mL of purified water was added to obtain a clear solution, and the pH was adjusted to 6.5 with 1 M hydrochloric acid or a 1 M NaOH solution. Purified water was added to a constant volume, and 0.11 g of SIF powder was weighed to obtain a clear solution.
Preparation of simulated intestinal fluid (FeSSIF) in a feeding state: 0.41 mL of glacial acetic acid, 0.20 g of NaOH and 0.59 g of NaCl were weighed to a 50 mL volumetric flask. About 48 mL of purified water was added to obtain a clear solution, and the pH was adjusted to 5.0 with 1 M hydrochloric acid or a 1 M NaOH solution. Purified water was added to a constant volume, and 0.56 g of SIF powder was weighed to obtain a clear solution.

[4] = Dynamic vapor sorption (DVS); assay type: physicochemical; conditions: 25° C./80% RH
Protocol: A dynamic vapor sorption (DVS) curve is obtained on DVS Intrinsic of Surface Measurement Systems (SMS). The relative humidity at 25° C. is corrected by using the deliquescence points of LiCl, Mg(NO3)2 and KCl.
A free base (9.1 g, 15.3 mmol) of 2-((2-ethyl-6-fluoro-5-(4-(2-(3-hydroxyazetidin-1-yl)-2-oxoethyl)piperazin-1-yl)pyrazolo[1,5-a]pyridin-3-yl)(methyl-d3)amino)-4-(4-fluorophenyl)thiazole-5-carbonitrile (compound A, i.e., compound 3) prepared in example 3 was added to ethanol (50 mL), warmed to 75° C., stirred for 2 h and then dissolved. The mixture was gradually cooled to room temperature under slow stirring, with a large amount of white solids precipitated out, and filtered by suction. The filter cake was washed with ethanol (10 mL), and then dried under vacuum at 40° C. for 24 h to obtain a crystal form I of compound A as a white solid (6.2 g, yield: 68%). […] (initial temperature).

In the case of `CCc1nc2c(C)cc(N3CCN(CC(=O)N4CC(O)C4)CC3)cn2c1N(C)c1nc(-c2ccc(F)cc2)c(C#N)s1` [GLPG-1690], the “Curative effect in IPF” value [1] is listed as “good curative effect”.

For `[2H]C([2H])([2H])N(c1nc(-c2ccc(F)cc2)c(C#N)s1)c1c(CC)nn2cc(F)c(N3CCN(CC(=O)N4CC(O)C4)CC3)cc12` [Compound A Crystal form I, 2-((2-ethyl-6-fluoro-5-(4-(2-(3-hydroxyazetidin-1-yl)-2-oxoethyl)piperazin-1-yl)pyrazolo[1,5-a]pyridin-3-yl)(methyl-d3)amino)-4-(4-fluorophenyl)thiazole-5-carbonitrile], the Crystal form change ([2]; 25° C./60% RH) was “No”, the Purity ([2]; 25° C./60% RH) was 99.41 area % and the Crystal form change ([2]; 40° C./75% RH) was “No”. The Purity ([2]; 40° C./75% RH) was 99.44 area %, the Initial purity ([2]; before storage) was 99.76 area % and the solubility at 1 h ([3]; fasted-state simulated intestinal fluid (FaSSIF), pH 6.5, thermodynamic from solid, vehicle FaSSIF, 1 h) was 320 µg/mL (≈ 537 µM). It also gave a solubility at 2 h ([3]; fasted-state simulated intestinal fluid (FaSSIF), pH 6.5, thermodynamic from solid, vehicle FaSSIF, 2 h) of 270 µg/mL (≈ 453 µM), a solubility at 4 h ([3]; fasted-state simulated intestinal fluid (FaSSIF), pH 6.5, thermodynamic from solid, vehicle FaSSIF, 4 h) of 360 µg/mL (≈ 604 µM) and a solubility at 24 h ([3]; fasted-state simulated intestinal fluid (FaSSIF), pH 6.5, thermodynamic from solid, vehicle FaSSIF, 24 h) of 210 µg/mL (≈ 353 µM). The pH ([3]; vehicle FaSSIF, 1 h) was 4.9, the pH ([3]; vehicle FaSSIF, 2 h) was 5.0 and the pH ([3]; vehicle FaSSIF, 4 h) was 4.9. The pH ([3]; vehicle FaSSIF, 24 h) was 4.9, the pH ([3]; vehicle FeSSIF, 1 h) was 8.5 and the pH ([3]; vehicle FeSSIF, 2 h) was 8.5. The pH ([3]; vehicle FeSSIF, 4 h) was 8.5, the pH ([3]; vehicle FeSSIF, 24 h) was 8.5 and the pH ([3]; vehicle H2O, 1 h) was 2.0. The pH ([3]; vehicle H2O, 2 h) was 2.2, the pH ([3]; vehicle H2O, 4 h) was 2.0 and the pH ([3]; vehicle H2O, 24 h) was 2.1. It also gave a pH ([3]; vehicle SGF, 1 h) of 6.4, a pH ([3]; vehicle SGF, 2 h) of 6.5 and a pH ([3]; vehicle SGF, 4 h) of 6.4. The pH ([3]; vehicle SGF, 24 h) was 6.4, the solubility at 1 h ([3]; simulated gastric fluid (SGF), pH 1.8, simulated gastric fluid, thermodynamic from solid, vehicle SGF, 1 h) was 15 µg/mL (≈ 25.2 µM) and the solubility at 2 h ([3]; simulated gastric fluid (SGF), pH 1.8, simulated gastric fluid, thermodynamic from solid, vehicle SGF, 2 h) was 15 µg/mL (≈ 25.2 µM). The solubility at 4 h ([3]; simulated gastric fluid (SGF), pH 1.8, simulated gastric fluid, thermodynamic from solid, vehicle SGF, 4 h) was 14 µg/mL (≈ 23.5 µM), the solubility at 24 h ([3]; simulated gastric fluid (SGF), pH 1.8, simulated gastric fluid, thermodynamic from solid, vehicle SGF, 24 h) was 14 µg/mL (≈ 23.5 µM) and the “S: Solubility” value ([3]; vehicle FeSSIF, 1 h) was “<LOQ”. For the same molecule, the “S: Solubility” value ([3]; vehicle FeSSIF, 2 h) was “<LOQ”, the “S: Solubility” value ([3]; vehicle FeSSIF, 4 h) was “<LOQ” and the “S: Solubility” value ([3]; vehicle FeSSIF, 24 h) was “<LOQ”. The solubility at 1 h ([3]; water, thermodynamic from solid, vehicle H2O, 1 h) was over 5100 µg/mL, the solubility at 2 h ([3]; water, thermodynamic from solid, vehicle H2O, 2 h) was over 5200 µg/mL and the solubility at 4 h ([3]; water, thermodynamic from solid, vehicle H2O, 4 h) was over 5300 µg/mL. It also gave a solubility at 24 h ([3]; water, thermodynamic from solid, vehicle H2O, 24 h) of over 5300 µg/mL and a water adsorption [4] of 0.20%.
